In patent US20210038730A1, “PEPTIDE NANOFIBERS” (UNIVERSITY OF PORTSMOUTH HIGHER EDUCATION CORPORATION, priority 2018, published 2021):
Where “and” joins values, the source holds several entries; their conditions need not be identical. Equal values may be shown once. Read-outs that look alike come from different tables or passages of the source.

Assays:
[1] = Isoelectric point by acid-base titration; format: physicochemical
Experimental: Both peptides were characterised by electrospray ionisation (positive/negative) mass spectrometry (MS), nuclear magnetic resonance (NMR), RP-HPLC, attenuated total reflectance Fourier-transformed infrared (ATR-FTIR) spectroscopy, thermogravimetric analysis (TGA) and differential scanning calorimetry (DSC). The isoelectric point of the peptides was also determined using an acid-base titration.

[2] = tested on: rat red blood cells (RBCs); format: cell-based; conditions: 1 hour, 37° C., read-out: IC50 of haemolysis
Experimental: Fresh blood, obtained from adult male Wistar rats (250 to 300 g) (Bioresources Unit, School of Pharmacy and Biomedical Sciences, University of Portsmouth, Portsmouth, UK) was collected in sterile lithium heparin-coated tubes (170 I.U., Vacutainer, BD Bioscience, UK) and kept on ice. To isolate the rat red blood cells (RBCs), fresh blood was centrifuged at 2,000 g using Haraeus Multifuge […] (Thermo Scientific, UK) at 4° C. for 10 minutes. The supernatant was removed, and the final volume was raised to the whole blood volume with PBS (0.01 M, pH 7.4). RBCs were centrifuged at 2,000 g for 10 minutes and washed with PBS three times. After the washing steps, two cell suspensions were prepared: 4% (w/v) RBCs in PBS and 1% (v/v) Triton X-100 (i.e. 1 g of cells in 25 mL of PBS or 1% (v/v) Triton X-100). RBCs in PBS and in Triton X-100 were used as a negative and positive control, respectively. […] After incubation, the cells were centrifuged at 1,200 g using a Haraeus Multifuge […] (Thermo Scientific, UK) during 10 minutes. The supernatant (100 μL) was transferred to a 96-well plate, and absorbance was measured at 590 nm. Percentage of haemolysis was calculated using Equation 1: [formula] Abs Negative Control represents the absorbance of the RBCs in PBS and Abs Positive Control the absorbance of the RBCs in 1% (v/v) Triton X-100. A control for Cremophor EL and ethanol mixture was also included.

[3] = biological target: T1, GnRH-R expressed on glioblastoma cells (Homo sapiens, UniProt P30968); assay: Receptor binding by single molecule force spectroscopy; conditions: for koff: read-out: Dissociation Rate (Koff)
T1 construct: GnRH peptides to the GnRH-R expressed on glioblastoma cells; endogenous in cells; host or cells: U-87 MG, UP-007, UP-029, SEBTA-023 glioblastoma cells (living)
T1 sequence (P30968 1-328): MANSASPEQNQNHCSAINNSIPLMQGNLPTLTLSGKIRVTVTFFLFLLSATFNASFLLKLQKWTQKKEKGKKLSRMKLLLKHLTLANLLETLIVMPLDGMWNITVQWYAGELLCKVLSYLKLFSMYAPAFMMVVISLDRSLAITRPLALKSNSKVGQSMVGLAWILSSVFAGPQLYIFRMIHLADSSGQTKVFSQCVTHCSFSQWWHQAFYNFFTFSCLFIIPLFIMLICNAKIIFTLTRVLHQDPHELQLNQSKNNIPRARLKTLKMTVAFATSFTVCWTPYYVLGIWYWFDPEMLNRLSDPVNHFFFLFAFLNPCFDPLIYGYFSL
Experimental: The binding of the GnRH analogues to GnRH-R was assessed using single molecule force spectroscopy (SMFS) and Topography and Recognition (TREC) imaging based on AFM. AFM tips were functionalised with Glu-GnRH, goserelin acetate and […] as a monomer and nanofibers using a previously described method ^9, 10. Silicon nitride (6-20 pN/nm spring constant, Bruker, Mass., USA) and magnetically coated […] tips (Keysight, Calif., USA) were used for SMFS and TREC studies, respectively. […] Subsequently, acetal groups were converted into aldehyde groups by immersing the tips in a 1% (w/v) citric acid solution for 10 minutes. […] Following an incubation of 2 hours, the free aldehyde groups were inactivated by ethanolamine for 10 minutes. AFM tips were washed with PBS three times and stored at 4° C. […] Loading rates were calculated by multiplying the pulling velocity (v) with the effective spring constant (keff). Spring constants were determined by the thermal-noise method. The force-distance curves were acquired using PicoView 1.12 (Agilent Technologies, Inc., California, USA) and analysed in Matlab 8.1 software (MathWorks, Massachusetts, USA). […] Amplitude-distance curves were collected on a glass coverslip to adjust the free oscillation amplitude, and to determine the optimal amplitude reduction value for driving the feedback loop during the imaging. Free amplitude of cantilever oscillation was 30 nm and the excitation frequency was set to 9 kHz.

GnRH-R on U-87 MG cells = biological target: T2, GnRH-R on U-87 MG cells (Homo sapiens, UniProt P30968); assay: SMFS blocking experiments with free GnRH-R ligands; format: binding
T2 construct: endogenous in cells; host or cells: U-87 MG
T2 sequence (P30968 1-328): T1 sequence (P30968 1-328)
Experimental: Blocking experiments were performed with different GnRH-R ligands (anti-GnRH-R antibody, Glu-GnRH, goserelin acetate, and TPGnRH). U-87 MG cells were analysed with tips functionalised with TPGnRH nanofibers and then the free ligands were added at a final concentration of 1 μg mL^−1 (anti-GnRH-R antibody) or 50 μg mL^−1 (Glu-GnRH, goserelin acetate and TPGnRH). U-87 MG cells treated with ligands were incubated for, at least, one hour at room temperature, and then the same cells were analysed with the same TPGnRH-functionalised tip at the same location in the cell.

Q: For CCCCCCCCCCCCCCCC(=O)Oc1ccc(C[C@H](NC(=O)[C@H](CO)NC(=O)[C@H](Cc2c[nH]c3ccccc23)NC(=O)[C@H](Cc2c[nH]cn2)NC(=O)[C@@H](N)CCC(=O)O)C(=O)NCC(=O)N[C@@H](CC(C)C)C(=O)N[C@@H](CCCNC(=N)N)C(=O)N2CCC[C@H]2C(=O)NCC(N)=O)cc1 [TPGnRH, Tyrosine (O-Palmitoyl)-Glu-GnRH], which Isoelectric point [1] is on record?
A: 6.28±0.51

Q: And the IC50 [2]?
A: ~200 µM

Q: What about the “Binding Force” value ([3]; SEBTA-023) of the same molecule?
A: 41.4 ± 3.85 pN

Q: And the “Binding Probability” value ([3]; SEBTA-023)?
A: 17.04±3.1%

Q: And the koff ([3]; SEBTA-023)?
A: 2.49 ± 0.12 s⁻¹

Q: What about the “Binding Force” value ([3]; U-87 MG) of the same molecule?
A: 30.00 ± 5.57 pN

Q: What about the “Binding Probability” value ([3]; U-87 MG) of the same molecule?
A: 13.2±0.9% and 13.2 ± 1.64%

Q: What about the koff ([3]; U-87 MG) of the same molecule?
A: 0.89 ± 0.1 s⁻¹

Q: And the “Binding Force” value ([3]; UP-007)?
A: 50.80 ± 2.88 pN

Q: And the “Binding Probability” value ([3]; UP-007)?
A: 20.5±5.8%

Q: And the koff ([3]; UP-007)?
A: 1.23 ± 0.13 s⁻¹

Q: What about the “Binding Force” value ([3]; UP-029) of the same molecule?
A: 46.4 ± 9.45 pN

Q: And the “Binding Probability” value ([3]; UP-029)?
A: 9.5±2.5% and 9.51 ± 2.53%

Q: What about the koff ([3]; UP-029) of the same molecule?
A: 2.03 ± 4.14 s⁻¹

Q: And the “Binding Probability of TPGnRH nanofiber tip to U-87 MG cells” value (GnRH-R on U-87 MG cells; after pre-incubation with the free ligand named as label (antibody 1 μg mL^−1, peptides 50 μg mL^−1))?
A: 4.5%

Q: What about the “Binding Probability of TPGnRH nanofiber tip to U-87 MG cells” value (GnRH-R on U-87 MG cells; before addition of the free ligand named as label (no pre-incubation)) of the same molecule?
A: 14.7%
